Counter-ions that a name gives are not always drawn.
Target: T1, human recombinant ENPP1 (Homo sapiens, UniProt P22413)
T1 construct: purchased R&D systems
T1 sequence (P22413 1-925): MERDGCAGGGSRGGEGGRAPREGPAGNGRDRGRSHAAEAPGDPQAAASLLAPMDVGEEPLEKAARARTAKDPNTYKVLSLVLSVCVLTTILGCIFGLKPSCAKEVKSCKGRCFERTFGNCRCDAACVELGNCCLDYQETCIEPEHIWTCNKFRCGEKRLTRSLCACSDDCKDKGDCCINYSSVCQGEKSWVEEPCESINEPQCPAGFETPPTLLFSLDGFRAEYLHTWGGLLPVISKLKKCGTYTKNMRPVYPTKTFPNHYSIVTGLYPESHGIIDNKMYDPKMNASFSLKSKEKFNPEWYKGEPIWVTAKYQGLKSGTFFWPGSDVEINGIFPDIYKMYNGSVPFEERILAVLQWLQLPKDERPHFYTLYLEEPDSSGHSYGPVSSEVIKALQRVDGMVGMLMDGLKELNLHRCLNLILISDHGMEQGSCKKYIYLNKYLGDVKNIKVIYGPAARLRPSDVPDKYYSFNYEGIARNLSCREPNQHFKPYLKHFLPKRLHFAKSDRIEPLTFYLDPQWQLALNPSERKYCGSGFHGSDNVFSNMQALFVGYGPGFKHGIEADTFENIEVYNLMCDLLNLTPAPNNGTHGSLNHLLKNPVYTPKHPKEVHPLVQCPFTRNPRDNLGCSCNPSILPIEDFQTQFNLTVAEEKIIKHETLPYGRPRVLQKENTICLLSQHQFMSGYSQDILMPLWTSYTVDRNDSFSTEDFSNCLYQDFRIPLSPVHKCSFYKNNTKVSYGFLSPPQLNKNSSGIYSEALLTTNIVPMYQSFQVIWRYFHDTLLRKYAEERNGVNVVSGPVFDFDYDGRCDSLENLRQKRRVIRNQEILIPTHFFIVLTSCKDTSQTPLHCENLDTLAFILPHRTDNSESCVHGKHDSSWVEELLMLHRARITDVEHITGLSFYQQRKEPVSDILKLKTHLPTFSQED
Assay: in vitro recombinant human ENPP1 enzymatic assay (AMP-Glo, cGAMP substrate)
Assay type: biochemical
Conditions: for % inhibition: ENPP1, test concentration not given; for IC50: average ± SD from two or three independent repeats
Excerpt: ENPP1 hydrolyses nucleotides or nucleotide derivatives and produces nucleoside-5′-monophosphates and pyrophosphates. ENPP1 also hydrolyses 2′3′-cGAMP and produces 5′-adenosine monophosphate (AMP) and 5′ guanosine monophosphate (GMP). The produced AMP from the reaction is detected using the AMP-Glo® kit (Promega). The assay kit consists of two reagents; one to terminate the AMP-generating enzymatic reaction, remove ATP and convert AMP produced into ADP, and a second reagent to convert ADP to ATP, which is used to generate a luminescence in a luciferase reaction. The amount of light measured is proportional to the amount of AMP produced by ENPP1.
The final assay reaction mixture contains a buffer of 50 mM Tris (pH 8.5), 250 mM NaCl, 0.5 mM CaCl2, 1 μM ZnCl2, 5% glycerol and 1% DMSO. Serially diluted ENPP1 inhibitors (usually range from 10 μM to 0.5 nM) are pre-incubated with human recombinant ENPP1 enzyme (R&D systems) at 3 ng/reaction for 5–10 min at room temperature (RT). The reaction is initiated by adding cGAMP (at final concentration of 5 μM) and incubating for 90 min at 37 °C. At the end of incubation, the reaction is stopped by adding 10 μL of AMP-Glo reagent I and followed by incubation at RT for one hour. After incubation, 20 μL of AMP detection solution (mixture of AMP-Glo II reagent and Kinase-Glo one at 1:100 ratio) is added and incubated at RT for one hour. The luminescence signal generated is measured using the ClarioStar plate reader (BMG Labtech). Maximal activity control (containing enzyme and substrate in presence of 1% DMSO only; MAX) and background control (containing substrate and 1% DMSO; MIN) are evaluated simultaneously. In each experiment, serially diluted reference ENPP1 inhibitor is tested together. The IC50 values for % remaining activity versus compound concentration are determined by fitting the inhibition curves using a three-parameter variable method in GraphPad Prism® software. Triplicate wells are run at each inhibitor concentration and averaged IC50 value for each compound is calculated.

% inhibition (Table 2) [%] | IC50 (Table 2) [nM] | % inhibition (Table 1) [%] | IC50 (Table 1) [nM] | Structure (SMILES)
53 | 4769 ± 0.455 | – | – | NS(=O)(=O)NCc1cccc(-c2ncnc3[nH]ccc23)c1 [25g, N-(3-(7H-Pyrrolo[2,3-d]pyrimidin-4-yl)benzyl)methanesulfamide hydrochloride]
100 | – | – | – | CC(NS(N)(=O)=O)c1ccc(-c2ncnc3[nH]ccc23)cc1 (stereo not drawn) [25j, N-(1–(4-(7H-Pyrrolo[2,3-d]pyrimidin-4-yl)phenyl)ethyl)methanesulfamide hydrochloride]
72 | – | – | – | Cn1ccc2c(-c3ccc(CNS(N)(=O)=O)cc3)ncnc21 [25e, N-(4-(7-Methyl-7H-pyrrolo[2,3-d]pyrimidin-4-yl)benzyl)methanesulfamide hydrochloride]
– | – | 37 | – | Cl.O=S(=O)(NCC1CCN(c2ncnc3[nH]ccc23)CC1)c1cccs1 [20a, N-((1-(7H-Pyrrolo[2,3-d]pyrimidin-4-yl)piperidin-4-yl)methyl)thiophene-2-sulfonamide hydrochloride]
73 | – | – | – | NS(=O)(=O)NCc1ccc(-c2ncnc3[nH]ccc23)cc1F [25c, N-(2-Fluoro-4-(7H-pyrrolo[2,3-d]pyrimidin-4-yl)benzyl)methanesulfamide hydrochloride]
– | – | 75 | 20660 ± 5.02 | CC(C)n1ccc2c(N3CCC(CNS(N)(=O)=O)CC3)ncnc21 [18e, N-((1–(7-Isopropyl-7H-pyrrolo[2,3-d]pyrimidin-4-yl)piperidin-4-yl)methyl)methanesulfamide hydrochloride]
– | – | 34 | 21610 ± 2.16 | CSc1nc(N2CCC(CCNS(N)(=O)=O)CC2)c2cc[nH]c2n1 [18b]
– | – | 100 | 51.4 ± 0.002 | Cn1ccc2c(N3CCC(CNS(N)(=O)=O)CC3)ncnc21 [18d, N-((1–(7-Methyl-7H-pyrrolo[2,3-d]pyrimidin-4-yl)piperidin-4-yl)methyl)methanesulfamide hydrochloride]
76 | 7597 ± 1.27 | – | – | NS(=O)(=O)NCc1ccc(-c2ncnc3[nH]ccc23)cc1 [25d, N-(4-(7H-Pyrrolo[2,3-d]pyrimidin-4-yl)benzyl)methanesulfamide hydrochloride]
– | – | 99 | – | NS(=O)(=O)NCCC1CCN(c2ncnc3[nH]ccc23)CC1 [18a, N-(2–(1-(7H-Pyrrolo[2,3-d]pyrimidin-4-yl)piperidin-4-yl)ethyl)methanesulfamide hydrochloride]
– | – | 22 | – | Cl.O=S(=O)(NCC1CCN(c2ncnc3[nH]ccc23)CC1)C1CC1 [20c, N-((1-(7H-Pyrrolo[2,3-d]pyrimidin-4-yl)piperidin-4-yl)methyl)cyclopropanesulfonamide hydrochloride]
– | – | 99 | 250 ± 0.028 | CC(NS(N)(=O)=O)C1CCN(c2ncnc3[nH]ccc23)CC1 (stereo not drawn) [18o, N-(1–(1-(7H-Pyrrolo[2,3-d]pyrimidin-4-yl)piperidin-4-yl)ethyl)methanesulfamide hydrochloride]
– | – | 54 | – | NS(=O)(=O)NCC1CCN(c2ncnc3c2ccn3-c2ccc(F)cc2)CC1 [18h, N-((1–(7-(4-Fluorophenyl)-7H-pyrrolo[2,3-d]pyrimidin-4-yl)piperidin-4-yl)methyl)methanesulfamide hydrochloride]
– | – | 100 | 74 ± 0.052 | NS(=O)(=O)NCC1CCN(c2ncnc3c2ccn3C2CC2)CC1 [18f, N-((1–(7-Cyclopropyl-7H-pyrrolo[2,3-d]pyrimidin-4-yl)piperidin-4-yl)methyl)methanesulfamide hydrochloride hydrochloride]
98 | 1466 ± 0.044 | – | – | CC(C)(NS(N)(=O)=O)c1ccc(-c2ncnc3[nH]ccc23)cc1 [25h, N-(2–(4-(7H-Pyrrolo[2,3-d]pyrimidin-4-yl)phenyl)propan-2-yl)methanesulfamide hydrochloride]
– | – | 99 | 298 ± 0.041 | NS(=O)(=O)NCC1CCN(c2ncnc3c2ccn3-c2ccccc2)CC1 [18g, N-((1–(7-Phenyl-7H-pyrrolo[2,3-d]pyrimidin-4-yl)piperidin-4-yl)methyl)methanesulfamide hydrochloride hydrochloride]
33 | – | – | – | NS(=O)(=O)Nc1ccc(-c2ccnc3[nH]ccc23)cc1 [25b, N-(4-(1H-Pyrrolo[2,3-b]pyridin-4-yl)phenyl)methanesulfamide hydrochloride]
– | – | 100 | 54.1 ± 0.001 | NS(=O)(=O)NCC1CCN(c2ncnc3c2ccn3-c2ccoc2)CC1 [18k, N-((1–(7-(Furan-3-yl)-7H-pyrrolo[2,3-d]pyrimidin-4-yl)piperidin-4-yl)methyl)methanesulfamide hydrochloride]
0 | – | – | – | NS(=O)(=O)Nc1ccc(-c2ncnc3[nH]ccc23)cc1 [25a]
– | – | 17 | – | NS(=O)(=O)NCC1CCN(c2ncnc3c2ccn3Cc2ccccc2)CC1 [18j, N-((1–(7-Benzyl-7H-pyrrolo[2,3-d]pyrimidin-4-yl)piperidin-4-yl)methyl)methanesulfamide hydrochloride]
– | – | 71 | 1853 ± 1.16 | NS(=O)(=O)NCC1CCN(c2ncnc3c2ccn3-c2cccnc2)CC1 [18l, N-((1-(7-(Pyridin-3-yl)-7H-pyrrolo[2,3-d]pyrimidin-4-yl)piperidin-4-yl)methyl)methanesulfamide hydrochloride]
– | – | 94 | 462 ± 0.17 | Cc1c[nH]c2ncnc(N3CCC(CNS(N)(=O)=O)CC3)c12 [18m, N-((1–(5-Methyl-7H-pyrrolo[2,3-d]pyrimidin-4-yl)piperidin-4-yl)methyl)methanesulfamide hydrochloride]
– | – | 99 | 218 ± 0.019 | Cc1cc2c(N3CCC(CNS(N)(=O)=O)CC3)ncnc2[nH]1 [18n, N-((1–(6-Methyl-7H-pyrrolo[2,3-d]pyrimidin-4-yl)piperidin-4-yl)methyl)methanesulfamide hydrochloride]
– | – | 37 | – | COc1ccc(-n2ccc3c(N4CCC(CNS(N)(=O)=O)CC4)ncnc32)cc1 [18i, N-((1–(7-(4-Methoxyphenyl)-7H-pyrrolo[2,3-d]pyrimidin-4-yl)piperidin-4-yl)methyl)methanesulfamide hydrochloride]
– | – | 62 | – | Cc1ccc(S(=O)(=O)NCC2CCN(c3ncnc4[nH]ccc34)CC2)cc1.Cl [20b, N-((1-(7H-Pyrrolo[2,3-d]pyrimidin-4-yl)piperidin-4-yl)methyl)-4-methylbenzenesulfonamide hydrochloride]
– | – | 71 | 3323 ± 0.298 | NS(=O)(=O)NC1CCN(c2ncnc3[nH]ccc23)CC1 [18q, N-(1-(7H-Pyrrolo[2,3-d]pyrimidin-4-yl)piperidin-4-yl)methanesulfamide hydrochloride]
– | – | 100 | 19 ± 0.016 | NS(=O)(=O)NCC1CCN(c2ncnc3[nH]ccc23)CC1 [18c, N-((1–(7H-Pyrrolo[2,3-d]pyrimidin-4-yl)piperidin-4-yl)methyl)methanesulfamide hydrochloride]
